{
  "source": "patent US7084174B2",
  "about": "“Administration of isovaleryl L-carnitine to stimulate osteoblastic activity” (Sigma-Tau Industrie Farmaceutiche Riunite S.p.A., priority 2000, dated 2006)",
  "key": {"[1]": {"conditions": "rat; cited from earlier work"}, "[2]": {"tested_on": "human osteoblasts", "experiment": "Cellular proliferation test", "type": "cell-based", "conditions": "for cells proliferation (number of cells, colorimetric test at 540 nm): human osteoblasts, medium without FCS with BSA, increasing doses, 5 days, FIG. 1 / FIG. 2", "procedure": "(§1) The differentiated human osteoblasts were prepared starting from bone fragments obtained during surgical operation following the procedure described in Calcif. Tissue Int. 62: 362–365, 1998; and in Calcif. Tissue Int. 37: 453–460, 1985.\n(§2) In short, bone fragments were undertaken to enzymatic digestion with collagenase (1 mg/ml) diluted in phosphate buffer in order to remove fibroblasts, haematic endothelial cells or bone marrow cells, if any.\n(§3) The fragments so cleaned were maintained in culture in presence of a medium containing 20% of foetal calf serum (FCS) to obtain osteoblasts population for explant.\n(§4) The cells so obtained were characterised to verify their osteoblastic phenotype then used for the experiments.\nThe cellular proliferation test was done growing the cells in 96 well plates, in medium without FCS, and with bovine serum albumin (BSA).\nThe cells were exposed to increasing doses of L-carnitine fumarate and isovaleryl L-carnitine fumarate. The positive control group was constituted by cells growing in presence of FCS (15%).\nEvery 24 ore, for 5 days, samples from plates in culture were fixed with a solution of paraformaldehyde at 3%, the cells were stained with crystal-violet at 0.5%, washed to eliminate the excess of stain and a solution of sodium citrate 0.1 M in ethanol was added. The number of the cells contained in the wells was evaluated by colorimetric test at 540 nm."}, "[3]": {"tested_on": "osteocalcine", "conditions": "mice, during formation of the bone matrix; cited from earlier work"}, "[4]": {"tested_on": "human osteoblasts", "experiment": "Production of collagen by incorporation of 3H-proline", "type": "cell-based", "conditions": "FIG. 3", "procedure": "as §1, §2, §3, §4\nThe collagen production represents a method for the evaluation of the osteoblast activity.\nThis production was evaluated on semiconfluent cells grown on 24 wells plates, in medium without serum (FCS) containing 1 μCi/well of ^3H-proline, both in the wells of the control and in the wells where were present the tested compounds. After 4 hours of incubation in presence of the tracer the cells were lysed and undertaken to an extraction procedure (Journal of Bone and Mineral Research, 2000; Vol. 15(2); 188–97). […] The radioactivity of the cells, as index of the cells collagen synthesis, was evaluated with a beta-counter."}},
  "note": "Structures can show the parent of a compound that is named as a salt.",
  "data": [
    {"smiles": "C[N+](C)(C)CC(O)CC(=O)[O-]", "note": "(racemic) [D,L-carnitine]", "values": [
      {"measurement": "bone calcium", "setting": "[1]", "value": "increases the bone calcium"}
    ]},
    {"smiles": "C[N+](C)(C)C[C@H](O)CC(=O)[O-].O=C(O)/C=C/C(=O)O", "note": "[L-carnitine fumarate, reference compound]", "values": [
      {"measurement": "cells proliferation (number of cells, colorimetric test at 540 nm)", "setting": "[2]", "value": "cells proliferation induced by L-carnitine fumarate"}
    ]},
    {"smiles": "C[N+](C)(C)C[C@H](O)CC(=O)[O-]", "note": "[L-carnitine]", "values": [
      {"measurement": "production of osteocalcine (index of better calcification)", "setting": "[3]", "value": "increase the production of osteocalcine"}
    ]},
    {"smiles": "CC(=O)O[C@H](CC(=O)[O-])C[N+](C)(C)C", "note": "[acetyl L-carnitine]", "values": [
      {"measurement": "production of osteocalcine (index of better calcification)", "setting": "[3]", "value": "reduces the production of this marker"}
    ]},
    {"smiles": "CC(C)CC(=O)O[C@H](CC(=O)[O-])C[N+](C)(C)C", "note": "[isovaleryl L-carnitine fumarate]", "values": [
      {"measurement": "production of collagen respect to the same doses of L-carnitine fumarate", "setting": "[4]; Student t test", "value": "favouring activity for the production of collagen in a significant way"},
      {"measurement": "production of collagen (3H-proline incorporation) respect to the control sample", "setting": "[4]; semiconfluent cells, medium without serum, 4 hours of incubation with tracer", "value": "increases the production of collagen in an higher way respect to the control sample"},
      {"measurement": "cells proliferation compared with L-carnitine fumarate", "setting": "[2]; FIG. 1 versus FIG. 2", "value": "induces cells proliferation (FIG. 1) in a more potent way"},
      {"measurement": "cellular proliferation activity at 10^-3 M compared with L-carnitine fumarate at 10^-2 M", "setting": "[2]; dose 10 times lower than that of L-carnitine fumarate", "value": "has the same cellular proliferation activity"},
      {"measurement": "cells proliferation (number of cells, colorimetric test at 540 nm)", "setting": "[2]", "value": "promotes cells proliferation"}
    ]}
  ]
}
